# Experimental data taken from ChEMBL document CHEMBL4825684, “Design, synthesis and biological evaluation of N-anthraniloyl tryptamine derivatives as pleiotropic molecules for the therapy of malignant glioma” (Eur J Med Chem, 2021).
# Calls of active or inactive are those of the source. The rule behind the calls is not given here.
# How the values were obtained:
# [1] = Tmax in Sprague-Dawley rat at 60 mg/kg, ip measured up to 24 hrs by LC-MS analysis; format: ADME, organism-based; conditions: in vivo
# C6 [2] = assay: Anxiolytic activity in rat C6 cells inoculated orthotopic Sprague-Dawley rat model assessed as suppression of MMP9 expression in tumor tissue at 50 mg/kg, ip twice a day administered for 13 days of tumor implantation by immunohistochemical staining analysis; format: functional, organism-based; conditions: time 13.0 day
# C6 [3] = assay: Antitumor activity against rat C6 cells inoculated orthotopic Sprague-Dawley rat model assessed as suppression of glioma cells to invade the surrounding brain tissue at 50 mg/kg, ip twice a day administered for 13 days of tumor implantation by hematoxylin-eosin staining analysis; format: functional, organism-based; conditions: time 13.0 day
# C6 [4] = assay: Antiproliferative activity against rat C6 cells assessed as growth inhibition incubated for 72 hrs by CCK-8 assay; format: functional, cell-based; conditions: C6, 72 h
# [5] = Half life in Sprague-Dawley rat at 60 mg/kg, ip measured up to 24 hrs by LC-MS analysis; format: ADME, organism-based; conditions: in vivo
# C6 [6] = assay: Antitumor activity against rat C6 cells inoculated orthotopic Sprague-Dawley rat model assessed as inhibition of angiogenesis brain tissue at 50 mg/kg, ip twice a day administered for 13 days of tumor implantation; format: functional, organism-based; conditions: time 13.0 day
# U-251 [7] = assay: Induction of apoptosis in human U-251 cells assessed as viable cells at 2 uM incubated for 48 hrs by […] double staining based flow cytometry assay (reference value: 96.6%); format: functional; conditions: read-out: Activity
# U-251 [8] = assay: Antiproliferative activity against human U-251 cells assessed as decrease in proliferation at 4 uM measured after 24 hrs by EdU assay relative to control; format: functional, cell-based
# C6 [9] = assay: Antitumor activity against rat C6 cells inoculated orthotopic Sprague-Dawley rat model assessed as decrease in PGE2 in tumor tissue at 50 mg/kg, ip twice a day treated 3 days after tumor cell injection measured for 13 days after tumor implantation […]; format: functional, organism-based; conditions: time 3.0 day
# BV-2 = assay: Inhibition of MMP9 production in mouse BV-2 cells co-cultured with rat C6 glioma cells at 2 uM incubated for 24 hrs by Western blot analysis; format: functional, cell-based
# U-251 [10] = assay: Antimigratory activity against human U-251 cells assessed as inhibition of migration incubated for 24 hrs by matrigel trans well plate assay; format: functional, cell-based; conditions: dose 1-4 µM
# [11] = Toxicity in rat C6 cells inoculated orthotopic Sprague-Dawley rat model assessed as body weight change at 50 mg/kg, ip twice a day administered for 13 days of tumor implantation; format: organism-based; conditions: in vivo, 312 h, time 13 day
# C6 [12] = assay: Antitumor activity against rat C6 cells inoculated orthotopic Sprague-Dawley rat model assessed as decrease in VEGF-A in tumor tissue at 50 mg/kg, ip twice a day treated 3 days after tumor cell injection measured for 13 days after tumor implantation by Western blot analysis; format: functional, organism-based; conditions: time 3.0 day
# U-87 MG [13] = assay: Induction of apoptosis in human U-87 MG cells assessed as viable cells at 8 uM incubated for 48 hrs by Annexin VIM double staining based flow cytometry assay (reference value: 97.8%); format: functional, U-87MG ATCC; conditions: read-out: Activity
# U-87 MG [14] = assay: Induction of apoptosis in human U-87 MG cells assessed as early apoptotic cells at 4 uM incubated for 48 hrs by […] double staining based flow cytometry assay (reference value: 0.63%); format: functional, U-87MG ATCC
# U-87 MG [15] = assay: Cell cycle arrest in human U-87 MG cells assessed as accumulation at G2/M phase at 8 uM incubated for 48 hrs by PI staining based flow cytometry assay (reference value: 8%); format: functional, U-87MG ATCC
# C6 [16] = assay: Antitumor activity against rat C6 cells inoculated orthotopic Sprague-Dawley rat model assessed as decrease in p-STAT3 in tumor tissue at 50 mg/kg, ip twice a day treated 3 days after tumor cell injection measured for 13 days after tumor implantation by Western blot analysis; format: functional, organism-based; conditions: time 3.0 day
# U-87MG ATCC = assay: Reduction in MMP9 expression in human U-87 MG cells incubated for 24 hrs by Western blot analysis; format: functional, cell-based; conditions: dose 1-4 µM
# [17] = biological target: Signal transducer and activator of transcription 3 (Homo sapiens) (UniProt P40763); assay: Inhibition STAT3 phosphorylation in human U-87 MG cells incubated up to 8 hrs by Western blot analysis; format: cell-based; conditions: time hrs <=8
# U-251 [18] = assay: Induction of apoptosis in human U-251 cells assessed as increase in cytochrome c release at 1 to 4 uM incubated for 48 hrs by Western blot analysis relative to control; format: functional, cell-based; conditions: dose 1-4 µM
# U-87 MG [19] = assay: Induction of apoptosis in human U-87 MG cells assessed as early apoptotic cells at 8 uM incubated for 48 hrs by […] double staining based flow cytometry assay (reference value: 0.63%); format: functional, U-87MG ATCC
# U-87 MG [20] = assay: Antiproliferative activity against human U-87 MG cells assessed as decrease in proliferation at 4 uM measured after 24 hrs by EdU assay relative to control; format: functional, cell-based; conditions: U-87MG ATCC
# U-251 [21] = assay: Reduction in MMP9 expression in human U-251 cells incubated for 24 hrs by Western blot analysis; format: functional, cell-based; conditions: dose 1-4 µM
# U-87 MG [22] = assay: Induction of apoptosis in human U-87 MG cells assessed as viable cells at 2 uM incubated for 48 hrs by Annexin VIM double staining based flow cytometry assay (reference value: 97.8%); format: functional, U-87MG ATCC; conditions: read-out: Activity
# [23] = Drug uptake in Sprague-Dawley rat cerebrospinal fluid at 60 mg/kg, ip measured after 2 hrs by LC-MS analysis; format: ADME, organism-based; conditions: read-out: Drug uptake
# U-87 MG [24] = assay: Induction of apoptosis in human U-87 MG cells assessed as necrotic cells at 8 uM incubated for 48 hrs by Annexin VIM double staining based flow cytometry assay (reference value: 0.91%); format: functional, U-87MG ATCC
# C6 [25] = assay: Antitumor activity against rat C6 cells inoculated orthotopic Sprague-Dawley rat model assessed as increase in rat survival at 50 mg/kg, ip twice a day administered for 25 days (reference value: 16%); format: functional; conditions: time 25 day
# U-251 [26] = assay: Antiproliferative activity against human U-251 cells assessed as growth inhibition incubated for 72 hrs by CCK-8 assay; format: functional, cell-based; conditions: U-251, 72 h
# U-251 [27] = assay: Induction of apoptosis in human U-251 cells assessed as early apoptotic cells at 4 uM incubated for 48 hrs by […] double staining based flow cytometry assay (reference value: 0.73%); format: functional
# [28] = biological target: Tyrosine-protein kinase JAK2 (Homo sapiens) (UniProt O60674); assay: Inhibition JAK2 phosphorylation in human U-87 MG cells incubated up to 8 hrs by Western blot analysis; format: cell-based; conditions: time hrs <=8
# [29] = Plasma concentration in Sprague-Dawley rat at 60 mg/kg, ip measured up to 24 hrs by LC-MS analysis; format: ADME, organism-based
# [30] = Toxicity in rat C6 cells inoculated orthotopic Sprague-Dawley rat model assessed as changes in blood at 50 mg/kg, ip twice a day administered for 13 days of tumor implantation by routine blood test; format: organism-based; conditions: in vivo, 312 h, time 13 day
# U-251 [31] = assay: Induction of apoptosis in human U-251 cells assessed as necrotic cells at 8 uM incubated for 48 hrs by […] double staining based flow cytometry assay (reference value: 1.32%); format: functional
# U-251 [32] = assay: Induction of apoptosis in human U-251 cells assessed as decrease in Bcl2/Bax ratio at 2 to 4 uM incubated for 48 hrs by Western blot analysis relative to control; format: functional, cell-based; conditions: dose 2-4 µM
# U-251 [33] = assay: Induction of apoptosis in human U-251 cells assessed as viable cells at 4 uM incubated for 48 hrs by […] double staining based flow cytometry assay (reference value: 96.6%); format: functional; conditions: read-out: Activity
# U-251 [34] = assay: Induction of apoptosis in human U-251 cells assessed as early apoptotic cells at 8 uM incubated for 48 hrs by […] double staining based flow cytometry assay (Rvb+B32 = 0.73%); format: functional
# Tyrosine-protein kinase JAK2 (Homo sapiens), sequence (O60674 whole entry): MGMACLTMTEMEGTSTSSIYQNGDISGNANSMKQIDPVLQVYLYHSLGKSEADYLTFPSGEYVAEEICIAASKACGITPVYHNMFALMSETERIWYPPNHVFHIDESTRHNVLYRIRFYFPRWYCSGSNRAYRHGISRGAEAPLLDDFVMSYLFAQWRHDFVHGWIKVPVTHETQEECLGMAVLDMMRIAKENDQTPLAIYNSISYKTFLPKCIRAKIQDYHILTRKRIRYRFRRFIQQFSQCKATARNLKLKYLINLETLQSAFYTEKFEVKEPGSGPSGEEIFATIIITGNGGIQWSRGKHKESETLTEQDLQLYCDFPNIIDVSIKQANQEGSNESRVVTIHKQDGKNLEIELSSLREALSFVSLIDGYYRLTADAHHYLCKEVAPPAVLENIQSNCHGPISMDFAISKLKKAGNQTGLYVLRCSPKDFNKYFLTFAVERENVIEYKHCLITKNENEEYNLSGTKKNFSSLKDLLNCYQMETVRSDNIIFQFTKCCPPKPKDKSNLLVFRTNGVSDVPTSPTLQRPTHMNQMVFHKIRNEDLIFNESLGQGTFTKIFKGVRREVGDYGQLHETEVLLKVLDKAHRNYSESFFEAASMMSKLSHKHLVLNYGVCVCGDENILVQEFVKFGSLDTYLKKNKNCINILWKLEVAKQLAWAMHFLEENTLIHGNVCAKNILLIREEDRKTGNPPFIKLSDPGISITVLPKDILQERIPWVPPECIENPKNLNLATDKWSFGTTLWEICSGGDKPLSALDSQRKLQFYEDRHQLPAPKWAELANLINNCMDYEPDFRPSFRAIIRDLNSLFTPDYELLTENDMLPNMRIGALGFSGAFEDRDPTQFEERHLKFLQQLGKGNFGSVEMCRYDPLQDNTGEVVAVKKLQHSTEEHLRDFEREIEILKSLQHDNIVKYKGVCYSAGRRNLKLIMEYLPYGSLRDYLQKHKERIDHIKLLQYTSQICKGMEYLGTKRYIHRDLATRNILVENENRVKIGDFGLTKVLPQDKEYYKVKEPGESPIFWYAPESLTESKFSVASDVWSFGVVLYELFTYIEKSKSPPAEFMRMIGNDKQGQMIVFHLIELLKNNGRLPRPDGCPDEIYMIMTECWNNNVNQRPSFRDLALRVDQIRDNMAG
# Signal transducer and activator of transcription 3 (Homo sapiens), sequence (P40763 whole entry): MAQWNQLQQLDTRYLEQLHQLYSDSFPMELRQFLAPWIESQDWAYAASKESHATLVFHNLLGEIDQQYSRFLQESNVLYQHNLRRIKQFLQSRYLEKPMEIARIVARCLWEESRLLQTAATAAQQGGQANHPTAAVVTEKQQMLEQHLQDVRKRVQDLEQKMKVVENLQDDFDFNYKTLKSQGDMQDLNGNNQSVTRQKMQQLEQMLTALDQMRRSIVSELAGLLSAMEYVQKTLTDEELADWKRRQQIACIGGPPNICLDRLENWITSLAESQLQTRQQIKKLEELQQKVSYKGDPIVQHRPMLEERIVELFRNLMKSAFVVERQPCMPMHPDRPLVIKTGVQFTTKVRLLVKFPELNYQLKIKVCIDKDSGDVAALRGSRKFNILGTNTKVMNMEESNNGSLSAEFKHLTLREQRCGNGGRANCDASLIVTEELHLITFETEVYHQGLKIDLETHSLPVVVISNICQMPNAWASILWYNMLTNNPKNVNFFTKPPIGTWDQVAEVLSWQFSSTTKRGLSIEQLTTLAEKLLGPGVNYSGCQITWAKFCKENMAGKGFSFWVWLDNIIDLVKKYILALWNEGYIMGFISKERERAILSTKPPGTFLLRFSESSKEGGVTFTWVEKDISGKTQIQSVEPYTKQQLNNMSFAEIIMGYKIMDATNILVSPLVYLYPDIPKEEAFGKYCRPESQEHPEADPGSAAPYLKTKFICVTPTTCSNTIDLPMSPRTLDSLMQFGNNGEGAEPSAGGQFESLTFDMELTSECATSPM
compound,measurement,setting,value
COc1cc(Nc2ccccc2C(=O)NCCc2c[nH]c3ccccc23)cc(OC)c1OC,Tmax,[1],0.42 h
same,Activity,C6 [2],Active
same,Activity,C6 [3],Active
same,IC50,C6 [4],4.23 µM
same,half-life,[5],11.4 h
same,Activity,C6 [6],Active
same,viability at 2 µM,U-251 [7],73.4%
same,Activity,U-251 [8],Active
same,Activity,C6 [9],Active
same,inhibition,BV-2,Active
same,Activity,U-251 [10],Active
same,Activity,[11],Non-Toxic
same,Activity,C6 [12],Active
same,viability at 8 µM,U-87 MG [13],77.7%
same,Activity,U-87 MG [14],6.09%
same,Activity,U-87 MG [15],68.2%
same,Activity,C6 [16],Active
same,Activity,U-87MG ATCC,Dose-Dependent Effect
same,inhibition,[17],Active
same,Activity,U-251 [18],Active
same,Activity,U-87 MG [19],13.8%
same,Activity,U-87 MG [20],Active
same,Activity,U-251 [21],Dose-Dependent Effect
same,viability at 2 µM,U-87 MG [22],95.1%
same,concentration at 2 h,[23],0.2 µg/mL
same,Activity,U-87 MG [24],1.1%
same,Activity,C6 [25],66%
same,IC50,U-251 [26],1.87 µM
same,Activity,U-251 [27],7.95%
same,inhibition,[28],Active
same,concentration at 24 h,[29],0.2 µg/mL
same,Activity,[30],Non-Toxic
same,Activity,U-251 [31],7.24%
same,Activity,U-251 [32],Active
same,viability at 4 µM,U-251 [33],65.5%
same,Activity,U-251 [34],9.93%
